The supplement of paper PMC6045584
± gives the standard deviation of the averaged measurements.

What was measured:
FLAVOPIRIDOL = compound: CN1CC[C@H](c2c(O)cc(O)c3c(=O)cc(-c4ccccc4Cl)oc23)[C@H](O)C1 [FLAVOPIRIDOL]; assay: surviving fraction relative to DMSO-only wells; higher = less growth inhibition; settings: exposure time: 5 days
Method in brief: (§1)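 Log-phase tumour cells were seeded at 250–500 per well in 384-well plates and, from 24 hours after seeding, exposed continuously for five days to inhibitors at 0.5, 1, 5, 10, 50, 100, 500 and 1000 nM. Surviving fraction is CellTiter-Glo luminescence normalised to the median of DMSO-only wells. Luminescence was measured after 10 minutes at room temperature, and only lines screened three times with replicate Pearson r >0.7 and median Z' >0.3 were kept.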

NUTLIN3 = compound: COc1ccc(C2=N[C@@H](c3ccc(Cl)cc3)[C@@H](c3ccc(Cl)cc3)N2C(=O)N2CCNC(=O)C2)c(OC(C)C)c1 [NUTLIN3]; assay: as above; settings: exposure time: 5 days
Method in brief: as §1

| Test System | surviving fraction (FLAVOPIRIDOL; 0.5 nM) | surviving fraction (FLAVOPIRIDOL; 1 nM) | surviving fraction (FLAVOPIRIDOL; 5 nM) | surviving fraction (FLAVOPIRIDOL; 10 nM) | surviving fraction (FLAVOPIRIDOL; 50 nM) | surviving fraction (FLAVOPIRIDOL; 100 nM) | surviving fraction (FLAVOPIRIDOL; 500 nM) | surviving fraction (FLAVOPIRIDOL; 1000 nM) | surviving fraction (NUTLIN3; 0.5 nM) | surviving fraction (NUTLIN3; 1 nM) | surviving fraction (NUTLIN3; 5 nM) | surviving fraction (NUTLIN3; 10 nM) | surviving fraction (NUTLIN3; 50 nM) | surviving fraction (NUTLIN3; 100 nM) | surviving fraction (NUTLIN3; 500 nM) | surviving fraction (NUTLIN3; 1000 nM) |
| --- | --- | --- | --- | --- | --- | --- | --- | --- | --- | --- | --- | --- | --- | --- | --- | --- |
| SCC47 HEADNECK | 1.18 ± 0.052 | 1.2 ± 0.061 | 1.23 ± 0.093 | 1.15 ± 0.078 | 0.665 ± 0.013 | 0.153 ± 0.043 | 0.039 ± 0.0017 | 0.0353 ± 0.0029 | 1.08 ± 0.082 | 1.03 ± 0.023 | 1.14 ± 0.026 | 1.135 ± 0.0096 | 1.13 ± 0.051 | 1.16 ± 0.088 | 1.07 ± 0.052 | 1.14 ± 0.099 |
| SCC90 HEADNECK | 1.07 ± 0.099 | 1.08 ± 0.072 | 1.12 ± 0.085 | 1.07 ± 0.12 | 0.834 ± 0.079 | 0.378 ± 0.086 | 0.0317 ± 0.0057 | 0.027 ± 0.002 | 1.05 ± 0.051 | 1.04 ± 0.22 | 1.13 ± 0.15 | 1.11 ± 0.23 | 1.12 ± 0.12 | 1.02 ± 0.026 | 0.997 ± 0.098 | 1.04 ± 0.098 |
| SG27 HEADNECK | 1.16 ± 0.11 | 1.04 ± 0.04 | 0.987 ± 0.12 | 1.02 ± 0.3 | 0.844 ± 0.087 | 0.368 ± 0.063 | 0.0753 ± 0.047 | 0.071 ± 0.032 | 1.01 ± 0.02 | 1.06 ± 0.12 | 0.998 ± 0.17 | 1.19 ± 0.19 | 0.998 ± 0.064 | 1 ± 0.062 | 0.788 ± 0.11 | 0.668 ± 0.06 |
| SG28 HEADNECK | 1.11 ± 0.096 | 1.1 ± 0.023 | 1.02 ± 0.081 | 1.04 ± 0.099 | 0.594 ± 0.089 | 0.0495 ± 0.0064 | 0.0315 ± 0.00071 | 0.032 ± 0.0028 | 1.13 ± 0.065 | 1.03 ± 0.14 | 1.02 ± 0.12 | 1.07 ± 0.12 | 1.03 ± 0.14 | 1.02 ± 0.085 | 1.01 ± 0.11 | 0.919 ± 0.1 |
| SG31 HEADNECK | 1.51 ± 0.26 | 1.23 ± 0.055 | 0.964 ± 0.096 | 0.988 ± 0.053 | 0.483 ± 0.057 | 0.147 ± 0.038 | 0.0443 ± 0.024 | 0.027 ± 0.0046 | 1.08 ± 0.067 | 1.05 ± 0.2 | 1.06 ± 0.12 | 0.921 ± 0.035 | 0.854 ± 0.13 | 1.11 ± 0.23 | 0.906 ± 0.038 | 0.92 ± 0.057 |
| SG32 HEADNECK | 1.14 ± 0.2 | 1.28 ± 0.092 | 1.07 ± 0.24 | 0.823 ± 0.14 | 0.227 ± 0.063 | 0.048 ± 0.01 | 0.0283 ± 0.013 | 0.0237 ± 0.0046 | 1.27 ± 0.11 | 1.14 ± 0.29 | 1 ± 0.13 | 1.12 ± 0.095 | 1.18 ± 0.035 | 1.31 ± 0.45 | 0.895 ± 0.29 | 0.61 ± 0.07 |
| SG43 HEADNECK | 1.04 ± 0.084 | 1.18 ± 0.081 | 0.885 ± 0.11 | 1.07 ± 0.044 | 0.812 ± 0.049 | 0.562 ± 0.12 | 0.028 ± 0.0062 | 0.033 ± 0.0076 | 1.11 ± 0.1 | 0.915 ± 0.071 | 0.928 ± 0.11 | 0.772 ± 0.064 | 0.877 ± 0.14 | 0.778 ± 0.24 | 0.806 ± 0.24 | 0.565 ± 0.1 |
| SIHA CERVIX | 1.07 ± 0.041 | 1.05 ± 0.067 | 1.1 ± 0.081 | 1.03 ± 0.032 | 0.714 ± 0.045 | 0.336 ± 0.056 | 0.0243 ± 0.0015 | 0.023 ± 0.001 | 1.05 ± 0.062 | 0.991 ± 0.053 | 1.01 ± 0.12 | 1.07 ± 0.071 | 1.05 ± 0.073 | 1.2 ± 0.05 | 1.11 ± 0.15 | 1.14 ± 0.11 |
| SJSA1 BONE | 0.135 ± 0.0078 | 0.272 ± 0.042 | 1.71 ± 0.2 | 0.209 ± 0.011 | 0.0583 ± 0.0059 | 1.74 ± 0.06 | 1.64 ± 0.076 | 0.776 ± 0.074 | 1 ± 0.048 | 0.997 ± 0.041 | 1.05 ± 0.053 | 1 ± 0.064 | 1.03 ± 0.023 | 1.04 ± 0.02 | 0.823 ± 0.011 | 0.568 ± 0.027 |
| SKBR3 BREAST | 1.15 ± 0.074 | 1.0877 ± 0.00058 | 1.05 ± 0.022 | 1.06 ± 0.092 | 0.541 ± 0.051 | 0.207 ± 0.035 | 0.032 ± 0.015 | 0.0233 ± 0.0031 | 0.795 ± 0.15 | 1.01 ± 0.2 | 0.869 ± 0.1 | 0.844 ± 0.18 | 0.952 ± 0.14 | 0.8987 ± 0.0035 | 0.91 ± 0.029 | 0.885 ± 0.077 |
| SNU475 LIVER | 1.05 ± 0.041 | 1 ± 0.032 | 1.09 ± 0.015 | 1.07 ± 0.072 | 1.02 ± 0.026 | 0.438 ± 0.048 | 0.0423 ± 0.0046 | 0.0407 ± 0.0029 | 1.02 ± 0.066 | 0.981 ± 0.017 | 0.988 ± 0.045 | 0.984 ± 0.032 | 1 ± 0.028 | 1.03 ± 0.071 | 1.021 ± 0.009 | 1 ± 0.02 |
| SUM44 BREAST | 1.14 ± 0.35 | 1.17 ± 0.16 | 1.22 ± 0.23 | 1.22 ± 0.27 | 1.08 ± 0.24 | 0.283 ± 0.012 | 0.119 ± 0.039 | 0.104 ± 0.036 | 0.96 ± 0.028 | 0.915 ± 0.056 | 1.02 ± 0.03 | 1.04 ± 0.051 | 1.09 ± 0.055 | 1.06 ± 0.017 | 1.07 ± 0.084 | 0.964 ± 0.063 |
| SUM149 BREAST | 0.955 ± 0.031 | 1.07 ± 0.051 | 1.06 ± 0.033 | 1.06 ± 0.087 | 0.681 ± 0.027 | 0.0783 ± 0.029 | 0.018 ± 0.0027 | 0.0183 ± 0.0032 | 1.03 ± 0.098 | 1.12 ± 0.052 | 1.18 ± 0.053 | 1.15 ± 0.085 | 1.08 ± 0.075 | 1.13 ± 0.11 | 1.04 ± 0.047 | 1.01 ± 0.092 |
| SUM149.B1*.S BREAST | 1.1 ± 0.047 | 1.09 ± 0.024 | 1.08 ± 0.063 | 1.044 ± 0.0039 | 1 ± 0.037 | 0.459 ± 0.06 | 0.0462 ± 0.0049 | 0.0412 ± 0.0016 | 1.03 ± 0.045 | 1.07 ± 0.0015 | 1.05 ± 0.011 | 1.07 ± 0.022 | 1.13 ± 0.037 | 1.12 ± 0.017 | 1.14 ± 0.024 | 1.11 ± 0.04 |
| SUM159 BREAST | 1.08 ± 0.024 | 1.08 ± 0.021 | 1.09 ± 0.014 | 1.049 ± 0.0055 | 1.08 ± 0.026 | 0.44 ± 0.082 | 0.0913 ± 0.0097 | 0.0957 ± 0.0072 | 1.07 ± 0.059 | 1.05 ± 0.04 | 0.982 ± 0.076 | 0.991 ± 0.041 | 1.03 ± 0.027 | 0.998 ± 0.08 | 0.946 ± 0.17 | 0.916 ± 0.25 |
| SYO1 SYNOVIAL | 1.02 ± 0.044 | 1 ± 0.064 | 0.972 ± 0.073 | 0.881 ± 0.05 | 0.515 ± 0.0082 | 0.144 ± 0.0063 | 0.0511 ± 0.0021 | 0.0522 ± 0.004 | 1.01 ± 0.039 | 0.997 ± 0.038 | 0.993 ± 0.019 | 0.979 ± 0.036 | 0.977 ± 0.042 | 0.934 ± 0.048 | 0.588 ± 0.026 | 0.468 ± 0.012 |
| T47D BREAST | 0.974 ± 0.18 | 1.07 ± 0.022 | 1.01 ± 0.2 | 1.11 ± 0.039 | 1.15 ± 0.051 | 0.67 ± 0.073 | 0.195 ± 0.0027 | 0.148 ± 0.0041 | 1.01 ± 0.029 | 0.993 ± 0.019 | 0.992 ± 0.043 | 1.01 ± 0.051 | 1.07 ± 0.029 | 1.08 ± 0.033 | 0.965 ± 0.075 | 0.937 ± 0.024 |
| U2OS BONE | 1.04 ± 0.049 | 1.03 ± 0.042 | 1.1 ± 0.028 | 1.09 ± 0.053 | 0.956 ± 0.017 | 0.112 ± 0.015 | 0.033 ± 0.0017 | 0.03 ± 0.001 | 1.02 ± 0.037 | 1.05 ± 0.037 | 1.04 ± 0.039 | 1.02 ± 0.049 | 1.04 ± 0.023 | 1.04 ± 0.028 | 0.974 ± 0.022 | 0.897 ± 0.036 |
| VCAP PROSTATE | 1.05 ± 0.085 | 1.02 ± 0.079 | 1.42 ± 0.065 | 1.52 ± 0.076 | 0.87 ± 0.058 | 0.324 ± 0.031 | 0.042 ± 0.01 | 0.051 ± 0.031 | 1.03 ± 0.066 | 1.13 ± 0.049 | 1.17 ± 0.088 | 1.25 ± 0.2 | 1.18 ± 0.24 | 1.18 ± 0.023 | 1.03 ± 0.14 | 1.11 ± 0.027 |
| VP229 BREAST | 1.13 ± 0.17 | 1.11 ± 0.062 | 1.16 ± 0.073 | 0.957 ± 0.12 | 0.564 ± 0.095 | 0.211 ± 0.13 | 0.0273 ± 0.0031 | 0.0273 ± 0.004 | 1.16 ± 0.12 | 1.08 ± 0.21 | 1.21 ± 0.029 | 0.944 ± 0.17 | 0.972 ± 0.065 | 1.04 ± 0.082 | 1.13 ± 0.09 | 0.975 ± 0.037 |
| YAMATO SYNOVIAL | 1.12 ± 0.068 | 1.08 ± 0.053 | 1.25 ± 0.061 | 1.11 ± 0.11 | 0.682 ± 0.082 | 0.306 ± 0.023 | 0.26 ± 0.0092 | 0.29 ± 0.013 | 1.42 ± 0.029 | 1.32 ± 0.13 | 1.43 ± 0.1 | 1.36 ± 0.1 | 1.5 ± 0.061 | 1.41 ± 0.15 | 1.4 ± 0.086 | 1.27 ± 0.13 |
| ZR751 BREAST | 1.28 ± 0.14 | 1.25 ± 0.051 | 1.21 ± 0.037 | 1.25 ± 0.033 | 1.108 ± 0.0081 | 0.453 ± 0.057 | 0.089 ± 0.0095 | 0.0853 ± 0.0065 | 1.26 ± 0.29 | 1.24 ± 0.11 | 1.02 ± 0.18 | 1.1 ± 0.011 | 1.11 ± 0.054 | 1.08 ± 0.23 | 0.786 ± 0.083 | 0.747 ± 0.024 |
